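In this assay, cells in 96-well plates receive the compound at five concentrations for 48 hours. Endpoints are linearly interpolated between the surrounding concentrations. At the GI50, growth is halved. TGI: concentration producing complete growth inhibition.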
Columns and labels:
Assay in all cases: inhibition of tumour cell growth, NCI panel, 48 h
HOP-92 NSCLC = system: HOP-92 NSCLC
RPMI-8226 leukemia = system: RPMI-8226 leukemia
HS 578T breast = system: HS 578T breast
K-562 leukemia = system: K-562 leukemia
IGROV1 ovarian = system: IGROV1 ovarian
SK-MEL-5 melanoma = system: SK-MEL-5 melanoma
CCRF-CEM leukemia = system: CCRF-CEM leukemia
SF-268 CNS = system: SF-268 CNS
NCI/ADR-RES ovarian = system: NCI/ADR-RES ovarian
NCI-H522 lung = system: NCI-H522 lung
SF-539 CNS = system: SF-539 CNS

| Compound | TGI (HOP-92 NSCLC) | TGI (RPMI-8226 leukemia) | TGI (HS 578T breast) | TGI (K-562 leukemia) | TGI (IGROV1 ovarian) | TGI (SK-MEL-5 melanoma) | TGI (CCRF-CEM leukemia) | TGI (SF-268 CNS) | TGI (NCI/ADR-RES ovarian) | TGI (NCI-H522 lung) | TGI (SF-539 CNS) | GI50 (HS 578T breast) |
| --- | --- | --- | --- | --- | --- | --- | --- | --- | --- | --- | --- | --- |
| O=C(C[n+]1ccccc1)N/N=C(\Cc1nc2ccc([N+](=O)[O-])cc2[nH]c1=O)C(=O)Nc1cc(Cl)c(Cl)cc1Cl | > 100 µM | > 100 µM | > 100 µM | > 100 µM | > 100 µM | > 100 µM | > 100 µM | > 100 µM | > 100 µM | > 100 µM | > 100 µM |  |
| Cc1nc2c(nc1C)-c1c(c3c(n1C)C(=O)CCC3)C(=O)C2=O | 2.94 µM | 0.636 µM | 9.62 µM | > 100 µM | 1.48 µM | 0.844 µM | 0.524 µM | 1.22 µM | 2.05 µM | 1.6 µM | 2.51 µM |  |
| Nc1ncc(Cl)c(NCC2(CO)CC(CCc3ccccc3)C2)n1 (stereo not drawn) | > 100 µM | > 100 µM | > 100 µM | > 100 µM | > 100 µM | > 100 µM | > 100 µM | > 100 µM | > 100 µM | > 100 µM | > 100 µM |  |
| CC(C)(C)OC(=O)N(O)CCCn1cnc2c(N)ncnc21 | > 100 µM | > 100 µM | > 100 µM | > 100 µM | > 100 µM | > 100 µM | > 100 µM | > 100 µM | > 100 µM | > 100 µM | > 100 µM |  |
| COC(=O)C1c2c(c3ccccc3n2C(=O)OC)CCN2CCC1C(S(=O)(=O)c1ccccc1)C2=O (stereo not drawn) | > 100 µM | > 100 µM | > 100 µM | > 100 µM | > 100 µM | > 100 µM | > 100 µM | > 100 µM | > 100 µM | > 100 µM | > 100 µM |  |
| Cc1ccc2c(n1)C(=O)C=CC2=O | 13.7 µM | 11 µM | > 78.5 µM | 18 µM | 29.3 µM | 29.4 µM | > 22.4 µM | 42.7 µM | 48.6 µM | 3.51 µM | 35.3 µM |  |
| COc1cc(C(=O)O[C@@H]2[C@@H](OC(=O)c3cc(OC)c(OC)c(OC)c3)[C@@H](OC)O[C@@H]3CO[C@@H](c4ccccc4)O[C@@H]23)cc(OC)c1OC | > 100 µM | > 100 µM | > 100 µM | > 100 µM | > 100 µM | > 100 µM | > 100 µM | > 100 µM | > 100 µM | > 100 µM | > 100 µM |  |
| Brc1c(C#CCC(c2ccccc2)(c2ccccc2)c2ccccc2)ccc(C#CCC(c2ccccc2)(c2ccccc2)c2ccccc2)c1Br | > 100 µM | > 100 µM | > 100 µM | > 100 µM | > 100 µM | > 100 µM | > 100 µM | > 100 µM | > 100 µM | > 100 µM | > 100 µM |  |
| COc1ccc2c(c1)/C(=C\c1c(C)nc3sc(C)cn13)C(=O)N2 | > 28.5 µM | > 64.8 µM | 10.3 µM | > 100 µM | 20.5 µM | 4.62 µM | 2.32 µM | 53.7 µM | > 42.6 µM | 1.53 µM | 9.58 µM |  |
| Cc1nn(C(=O)c2ccncc2)c2c1C(c1ccccc1)SC(N)=N2 (stereo not drawn) | > 10 µM | > 10 µM | > 10 µM | > 10 µM | > 10 µM | > 10 µM | > 10 µM | > 10 µM | > 10 µM | > 10 µM | > 10 µM |  |
| CCOC(=O)C(C(=O)c1ccccc1C(=O)OC)=P(c1ccccc1)(c1ccccc1)c1ccccc1 | > 10 µM | > 10 µM | > 10 µM | > 10 µM | > 10 µM | > 10 µM | > 10 µM | > 10 µM | > 10 µM | > 10 µM | > 10 µM |  |
| CN(C)CC1COC2Cc3ccccc3C1O2 (stereo not drawn) | > 100 µM | > 100 µM | > 100 µM | > 100 µM | > 100 µM | > 100 µM | > 100 µM | > 100 µM | > 100 µM | > 100 µM | > 100 µM |  |
| CCOc1ccc(NC(=O)/C(=N\NC(C)(C)C)C2C(=O)Nc3ccccc3S2=O)cc1 (stereo not drawn) | > 100 µM | > 100 µM | > 100 µM | > 100 µM | > 100 µM | > 100 µM | > 100 µM | > 100 µM | > 100 µM | > 100 µM | > 100 µM |  |
| CCN(CC)CCCn1c(=O)c2ccccc2n2c3c(=O)n(C)c(=O)n(C)c3nc12 | 16.4 µM | 49.7 µM | 45.6 µM | 33.6 µM | 26.2 µM | 15 µM | 35 µM | 23 µM | 47.2 µM | 21.9 µM | 22 µM |  |
| N#CC(=C1CCCCC1)c1nc2ccccc2o1 | > 100 µM | 71.3 µM | > 100 µM | > 100 µM | > 100 µM | > 100 µM | > 100 µM | > 100 µM | > 100 µM | 60.6 µM | 64.4 µM |  |
| Cc1oc(N)c(S(=O)(=O)c2ccc(Cl)cc2)c1C | > 100 µM | > 100 µM | > 100 µM | > 100 µM | > 100 µM | > 100 µM | > 100 µM | > 100 µM | > 100 µM | > 100 µM | 64.2 µM |  |
| COc1cc(C)cc2c1c(=O)c1ccccc1n2C | 91.8 µM | 66 µM | 78.9 µM | 39.4 µM | > 100 µM | 51.3 µM | 68.5 µM | > 100 µM | > 100 µM | > 100 µM | 38.4 µM |  |
| CCCCc1ccc(Nc2nc(=S)c3[nH]cnc3[nH]2)cc1 | > 100 µM | 90.4 µM | 49.3 µM | > 100 µM | 40.4 µM | 25.5 µM | 47.9 µM | > 100 µM | 40.3 µM | 22.8 µM | 48 µM |  |
| Oc1ccccc1C=Nc1ccc(-c2nc3ccccc3[nH]2)cc1 | > 100 µM | > 100 µM | > 100 µM | > 100 µM | > 100 µM | > 100 µM | 71.5 µM | > 100 µM | 53.2 µM | > 100 µM | > 100 µM |  |
| OC[C@]1(n2nc3ccccc3n2)OC[C@@H]1c1ccccc1 | > 100 µM | 97.4 µM | > 100 µM | > 100 µM | > 100 µM | > 100 µM | > 100 µM | > 100 µM | > 100 µM | 58.2 µM | 69.2 µM |  |
| C=C(C)C1CC/C(C)=C/CC[C@]2(C)O[C@H]2CC/C(COC(C)=O)=C\[C@@H]1O (stereo partly drawn) | > 50 µM | > 50 µM | > 50 µM | > 50 µM | > 50 µM | > 50 µM | > 50 µM | > 50 µM | > 50 µM | > 50 µM | > 50 µM | 8.27 µM |
| CCOC(=O)c1nc2ccccc2nc1Nc1ccc(OC)c(OC)c1 | > 100 µM | > 100 µM | > 100 µM | > 100 µM | > 100 µM | > 100 µM | > 100 µM | > 100 µM | > 100 µM | > 100 µM | > 100 µM |  |

Source: PubChem BioAssay (NCI)
